What all share (type): biochemical
For experiment [1], the target named is T1, JAK3 (Homo sapiens, UniProt P52333).
T1 sequence (P52333 1-1124): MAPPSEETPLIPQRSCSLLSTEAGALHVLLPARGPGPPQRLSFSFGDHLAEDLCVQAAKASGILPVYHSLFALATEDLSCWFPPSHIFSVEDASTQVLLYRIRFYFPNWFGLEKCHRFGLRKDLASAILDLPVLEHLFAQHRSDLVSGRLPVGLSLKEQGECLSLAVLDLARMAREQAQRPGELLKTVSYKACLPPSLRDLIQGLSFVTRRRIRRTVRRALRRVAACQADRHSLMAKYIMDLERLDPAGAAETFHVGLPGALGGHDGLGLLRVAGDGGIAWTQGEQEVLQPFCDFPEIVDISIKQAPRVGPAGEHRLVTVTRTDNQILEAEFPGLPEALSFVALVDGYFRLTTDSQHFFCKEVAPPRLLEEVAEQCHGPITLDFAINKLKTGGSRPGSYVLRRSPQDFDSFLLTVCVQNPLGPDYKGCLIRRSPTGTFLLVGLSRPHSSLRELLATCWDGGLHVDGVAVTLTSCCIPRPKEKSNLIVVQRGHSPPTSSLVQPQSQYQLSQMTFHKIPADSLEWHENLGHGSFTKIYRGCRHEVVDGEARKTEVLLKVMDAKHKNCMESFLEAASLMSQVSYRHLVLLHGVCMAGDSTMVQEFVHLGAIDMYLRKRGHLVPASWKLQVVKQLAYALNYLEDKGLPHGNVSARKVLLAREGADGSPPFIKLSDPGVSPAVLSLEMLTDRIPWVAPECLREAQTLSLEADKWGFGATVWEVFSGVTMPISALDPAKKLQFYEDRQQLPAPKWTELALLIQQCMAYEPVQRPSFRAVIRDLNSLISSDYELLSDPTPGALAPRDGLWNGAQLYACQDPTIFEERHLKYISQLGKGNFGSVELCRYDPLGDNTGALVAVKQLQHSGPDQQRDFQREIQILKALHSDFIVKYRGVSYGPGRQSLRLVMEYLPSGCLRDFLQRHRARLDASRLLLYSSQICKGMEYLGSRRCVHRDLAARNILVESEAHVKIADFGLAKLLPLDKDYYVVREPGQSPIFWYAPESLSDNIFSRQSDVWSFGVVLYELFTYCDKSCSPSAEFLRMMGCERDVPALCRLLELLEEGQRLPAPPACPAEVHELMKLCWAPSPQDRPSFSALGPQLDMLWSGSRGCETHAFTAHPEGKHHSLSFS
Put plainly: JAK3 Inhibition Assay, 33P incorporation. As to conditions: enzyme inhibition data (Ki), Table 11. The method, then: Reactions are carried out in a kinase buffer containing 100 mM HEPES (pH 7.4), 1 mM DTT, 10 mM MgCl2, 25 mM NaCl, and 0.01% BSA. Substrate concentrations in the assay are 5 μM ATP (200 uCi/μmole ATP) and 1 μM poly(Glu)4Tyr. Reactions are carried out at 25° C. and 1 nM JAK3. To each well of a 96 well polycarbonate plate is added 1.5 μl of a candidate JAK3 inhibitor along with 50 μl of kinase buffer containing 2 μM poly(Glu)4Tyr and 10 μM ATP. This is then mixed and 50 μl of kinase buffer containing 2 nM JAK3 enzyme is added to start the reaction. After 20 minutes at room temperature (25 C), the reaction is stopped with 50 μl of 20% trichloroacetic acid (TCA) that also contained 0.4 mM ATP. The entire contents of each well are then transferred to a 96 well glass fiber filter plate using a TomTek Cell Harvester. After washing, 60 μl of scintillation fluid is added and ^33P incorporation detected on a Perkin Elmer TopCount.

Experiment [2] addresses c-Met (Homo sapiens, UniProt P08581). Put plainly: c-Met Inhibition Assay, coupled enzyme system. As to conditions: enzyme inhibition data (Ki), Table 11. On the procedure: Compounds are screened for their ability to inhibit c-Met kinase activity using a standard coupled enzyme system (Fox et al., Protein Sci. 1998, 7, 2249). Reactions are carried out in a solution containing 100 mM HEPES (pH 7.5), 10 mM MgCl2, 25 mM NaCl, 300 μM NADH, 1 mM DTT, and 1.5% DMSO. Final substrate concentrations in the assay are 200 μM ATP (Sigma Chemicals, St Louis, Mo.) and 10 μM polyGluTyr (Sigma Chemical Company, St. Louis). Reactions are carried out at 30° C. and 80 nM c-Met. Final concentrations of the components of the coupled enzyme system are 2.5 mM phosphoenolpyruvate, 300 μM NADH, 30 μg/ml pyruvate kinase and 10 μg/ml lactate dehydrogenase.
An assay stock buffer solution is prepared containing all of the reagents listed above with the exception of ATP and a test compound of the present invention. The assay stock buffer solution (175 μl) is incubated in a 96 well plate with 5 μl of the test compound of the present invention at final concentrations spanning 0.006 μM to 12.5 μM at 30° C. for 10 minutes. Typically, a 12-point titration is conducted by preparing serial dilutions (from 10 mM compound stocks) with DMSO of the test compounds of the present invention in daughter plates. The reaction is initiated by the addition of 20 μl of ATP (final concentration 200 μM). Rates of reaction are obtained using a Molecular Devices Spectramax plate reader (Sunnyvale, Calif.) over 10 minutes at 30° C. The Ki values are determined from the rate data as a function of inhibitor concentration.

The target in experiment [3] is T2, Itk (Homo sapiens, UniProt Q08881).
T2 sequence (Q08881 1-620): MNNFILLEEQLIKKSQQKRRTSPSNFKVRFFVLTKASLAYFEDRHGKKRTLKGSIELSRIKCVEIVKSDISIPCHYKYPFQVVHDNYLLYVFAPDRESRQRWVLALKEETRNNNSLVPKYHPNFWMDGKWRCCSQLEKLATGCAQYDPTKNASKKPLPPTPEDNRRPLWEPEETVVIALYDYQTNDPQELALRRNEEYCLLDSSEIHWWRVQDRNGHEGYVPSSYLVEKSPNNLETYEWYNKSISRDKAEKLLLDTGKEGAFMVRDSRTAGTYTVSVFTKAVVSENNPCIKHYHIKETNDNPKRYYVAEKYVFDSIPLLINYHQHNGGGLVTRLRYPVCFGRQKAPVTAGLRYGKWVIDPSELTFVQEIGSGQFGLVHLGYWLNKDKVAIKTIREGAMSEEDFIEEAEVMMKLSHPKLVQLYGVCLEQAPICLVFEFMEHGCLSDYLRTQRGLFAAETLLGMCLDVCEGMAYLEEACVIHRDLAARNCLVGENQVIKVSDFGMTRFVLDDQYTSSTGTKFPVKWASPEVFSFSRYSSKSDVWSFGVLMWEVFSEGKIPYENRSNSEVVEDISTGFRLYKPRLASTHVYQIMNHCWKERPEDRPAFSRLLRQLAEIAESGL
Put plainly: ITK Inhibition Assay (Radiometric), radioactive-phosphate incorporation. The conditions noted are these: enzyme inhibition data (Ki), Table 11; radiometric or UV assay not stated. On the procedure: Assays are carried out in a mixture of 20 mM MOPS (pH 7.0), 10 mM MgCl2, 0.1% BSA and 1 mM DTT. Final substrate concentrations in the assay are 7.5 μM [γ-33P]ATP (400 mCi 33P ATP/mmol ATP, Amersham Pharmacia Biotech/Sigma Chemicals) and 3 μM peptide (SAM68 protein D332-443). Assays are carried out at 25° C. in the presence of 50 nM Itk. An assay stock buffer solution is prepared containing all of the reagents listed above, with the exception of ATP and the test compound of interest. 50 μL of the stock solution is placed in a 96 well plate followed by addition of 2 μL of DMSO stock containing serial dilutions of the test compound (typically starting from a final concentration of 50 μM with 2-fold serial dilutions) in duplicate (final DMSO concentration 2%). The plate is pre-incubated for 10 minutes at 25° C. and the reaction initiated by addition of 50 μL [γ-33P]ATP (final concentration 7.5 μM).
The reaction is stopped after 10 minutes by the addition of […] 0.2M phosphoric acid+0.01% TWEEN 20. A multiscreen phosphocellulose filter 96-well plate (Millipore, Cat no. MAPHN0B50) is pretreated with 100 μL 0.2M phosphoric acid +0.01% TWEEN 20 prior to the addition of […] of the stopped assay mixture. The plate is washed with 4×200 μL 0.2M phosphoric acid+0.01% TWEEN 20. After drying, 30 μL Optiphase ‘SuperMix’ liquid scintillation cocktail (Perkin Elmer) is added to the well prior to scintillation counting (1450 Microbeta Liquid Scintillation Counter, Wallac).
Ki(app) data are calculated from non-linear regression analysis of the initial rate data using the Prism software package (GraphPad Prism version 3.0cx for Macintosh, GraphPad Software, San Diego Calif., USA).

The structures appear in SMILES notation.

Chain of c-Met (P08581 25-1390): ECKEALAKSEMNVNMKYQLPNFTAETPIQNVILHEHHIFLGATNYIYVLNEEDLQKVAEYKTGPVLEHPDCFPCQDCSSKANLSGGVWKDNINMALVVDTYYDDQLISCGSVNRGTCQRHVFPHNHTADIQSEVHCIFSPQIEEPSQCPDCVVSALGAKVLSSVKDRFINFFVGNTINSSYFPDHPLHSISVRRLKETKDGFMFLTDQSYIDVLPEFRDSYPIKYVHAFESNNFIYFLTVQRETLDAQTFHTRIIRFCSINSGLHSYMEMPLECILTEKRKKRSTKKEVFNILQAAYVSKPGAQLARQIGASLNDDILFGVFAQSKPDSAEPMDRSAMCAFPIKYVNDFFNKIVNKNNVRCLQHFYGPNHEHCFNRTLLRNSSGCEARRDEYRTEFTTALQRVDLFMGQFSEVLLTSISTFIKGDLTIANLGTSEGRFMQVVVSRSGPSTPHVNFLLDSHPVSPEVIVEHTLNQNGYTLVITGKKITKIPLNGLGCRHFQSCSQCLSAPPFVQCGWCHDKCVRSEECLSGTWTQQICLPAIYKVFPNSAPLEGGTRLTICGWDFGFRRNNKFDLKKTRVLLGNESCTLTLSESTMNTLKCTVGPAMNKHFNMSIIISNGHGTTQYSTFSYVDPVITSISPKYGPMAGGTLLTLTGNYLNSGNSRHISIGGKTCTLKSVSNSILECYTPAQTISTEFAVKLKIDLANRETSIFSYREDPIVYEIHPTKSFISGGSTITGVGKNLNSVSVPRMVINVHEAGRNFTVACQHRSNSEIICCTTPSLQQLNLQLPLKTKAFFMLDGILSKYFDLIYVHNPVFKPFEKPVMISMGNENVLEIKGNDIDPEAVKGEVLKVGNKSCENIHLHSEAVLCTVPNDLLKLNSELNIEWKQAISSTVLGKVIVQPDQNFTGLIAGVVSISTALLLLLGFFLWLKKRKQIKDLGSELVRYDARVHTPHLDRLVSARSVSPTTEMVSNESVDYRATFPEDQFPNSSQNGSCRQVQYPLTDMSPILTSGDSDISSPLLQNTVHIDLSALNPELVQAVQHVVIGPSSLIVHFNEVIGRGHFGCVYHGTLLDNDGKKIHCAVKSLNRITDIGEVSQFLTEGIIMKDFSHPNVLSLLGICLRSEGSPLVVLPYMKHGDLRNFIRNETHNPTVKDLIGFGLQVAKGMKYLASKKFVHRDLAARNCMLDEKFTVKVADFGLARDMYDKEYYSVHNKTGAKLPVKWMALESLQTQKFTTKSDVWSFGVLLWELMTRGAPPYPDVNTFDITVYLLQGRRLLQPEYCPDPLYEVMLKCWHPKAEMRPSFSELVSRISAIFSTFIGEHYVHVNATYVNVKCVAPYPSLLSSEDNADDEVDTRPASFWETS

Broadly, the Ki is a measure of affinity in units of concentration, obtained from inhibition or displacement. For `COC(=O)/C=C/c1ccccc1-c1cnc2c(-c3ccccn3)c(N)nn2c1` [Compound V-17], the inhibitory constant (Ki) in experiment [1] was over 5 µM; in experiment [2], 500 to 5000 nM; in experiment [3], 500 to 5000 nM.

Regarding `Nc1nn2cc(-c3ccccc3OC(F)F)cnc2c1-c1ccccn1` [Compound V-19], the inhibition constant Ki in experiment [1] is over 5 µM; in experiment [2] it was 500 to 5000 nM; in experiment [3], 500 to 5000 nM.

`Nc1ccccc1-c1cnc2c(-c3ccccn3)c(N)nn2c1` [Compound V-20]: the Ki in experiment [1] was over 5 µM; in experiment [2], 500 to 5000 nM; in experiment [3] it was 500 to 5000 nM.

Consider `Nc1nn2cc(-c3ccccc3[N+](=O)[O-])cnc2c1-c1ccccn1` [Compound V-21], for which the inhibition constant Ki is over 5 µM in experiment [1], 500 to 5000 nM in experiment [2] and 500 to 5000 nM in experiment [3].

As to `CN(C)Cc1ccccc1-c1cnc2c(-c3ccccn3)c(N)nn2c1` [Compound V-23], the Ki in experiment [1] was over 5 µM; in experiment [2] it was 500 to 5000 nM; in experiment [3], 500 to 5000 nM.

As to `CCOC(=O)c1c(N)nn2cc(-c3ccccn3)cnc12` [Compound V-25], the inhibition constant Ki is over 5 µM in experiment [1], 500 to 5000 nM in experiment [2] and 500 to 5000 nM in experiment [3].

For `CCOC(=O)c1c(N)nn2cc(-c3cnccn3)cnc12` [Compound V-26], the figures for the inhibition constant Ki in experiment [1], in experiment [2] and in experiment [3] were over 5 µM, 500 to 5000 nM and 500 to 5000 nM, respectively.

With `CCOC(=O)c1c(N)nn2cc(-c3ccncn3)cnc12` [Compound V-27], the Ki is over 5 µM in experiment [1], 500 to 5000 nM in experiment [2] and 500 to 5000 nM in experiment [3].

Take `Nc1nn2cc(-c3ccncn3)cnc2c1C(=O)O` [Compound V-28]: the Ki is over 5 µM in experiment [1], 500 to 5000 nM in experiment [2] and 500 to 5000 nM in experiment [3].

As to `Cc1ccc(-c2cnc3c(-c4ccccc4Br)c(N)nn3c2)cc1` [Compound V-31], the inhibitory constant (Ki) in experiment [1] is over 5 µM; in experiment [2] it was 500 to 5000 nM; in experiment [3], 500 to 5000 nM.

With `Nc1nn2cc(-c3ccncn3)cnc2c1C(=O)NCc1ccc(F)cc1F` [Compound V-32], the figures for the Ki in experiment [1], in experiment [2] and in experiment [3] were over 5 µM, 500 to 5000 nM and 500 to 5000 nM, respectively.

As for `Nc1nn2cc(-c3ccncn3)cnc2c1C(=O)N1CCC[C@H]1CN1CCCC1` [Compound V-34], the Ki in experiment [1] was over 5 µM; in experiment [2], 500 to 5000 nM; in experiment [3], 500 to 5000 nM.

Regarding `CN(C)CCN(Cc1ccccc1)C(=O)c1c(N)nn2cc(-c3ccncn3)cnc12` [Compound V-35], the Ki was over 5 µM in experiment [1], 500 to 5000 nM in experiment [2] and 500 to 5000 nM in experiment [3].

Regarding `CCN(Cc1ccncc1)C(=O)c1c(N)nn2cc(-c3ccncn3)cnc12` [Compound V-36], the inhibitory constant (Ki) in experiment [1] was over 5 µM; in experiment [2], 500 to 5000 nM; in experiment [3] it was 500 to 5000 nM.

Regarding `Nc1nn2cc(-c3ccncn3)cnc2c1C(=O)N(CCO)Cc1ccccc1` [Compound V-37], the Ki is over 5 µM in experiment [1], 500 to 5000 nM in experiment [2] and 500 to 5000 nM in experiment [3].

As for `N#CCCN(Cc1ccccc1)C(=O)c1c(N)nn2cc(-c3ccncn3)cnc12` [Compound V-38], the Ki in experiment [1] was over 5 µM; in experiment [2], 500 to 5000 nM; in experiment [3] it was 500 to 5000 nM.

As for `Nc1nn2cc(-c3ccncn3)cnc2c1C(=O)N1CCC[C@H]1CO` [Compound V-39], the Ki is over 5 µM in experiment [1], 500 to 5000 nM in experiment [2] and 500 to 5000 nM in experiment [3].

Take `CN(CCC#N)C(=O)c1c(N)nn2cc(-c3ccncn3)cnc12` [Compound V-40]: the Ki in experiment [1] was over 5 µM; in experiment [2], 500 to 5000 nM; in experiment [3], 500 to 5000 nM.

For `CN(Cc1ccccc1)C(=O)c1c(N)nn2cc(-c3ccncn3)cnc12` [Compound V-41], the Ki was over 5 µM in experiment [1], 500 to 5000 nM in experiment [2] and 500 to 5000 nM in experiment [3].

In the case of `CCN(Cc1ccccc1)C(=O)c1c(N)nn2cc(-c3ccncn3)cnc12` [Compound V-42], the Ki in experiment [1] was over 5 µM; in experiment [2], 500 to 5000 nM; in experiment [3], 500 to 5000 nM.

Take `CN(C)c1ccc(CNC(=O)c2c(N)nn3cc(-c4ccncn4)cnc23)cc1` [Compound V-43]: the inhibition constant Ki in experiment [1] is over 5 µM; in experiment [2] it was 500 to 5000 nM; in experiment [3], 500 to 5000 nM.

Values taken from patent publication US7528138B2, “Pyrazolo[1,5-a]pyrimidines useful as inhibitors of protein kinases” (Vertex Pharmaceuticals Incorporated, priority 2004, dated 2009).
